Assay results: PubChem BioAssay AID2060615 (Molecular Pharmacology Branch, DTP, NCI, 2025)

System: 496974-208-R-J2-PDC complex spheroids, growth % test/control
Test: Anticancer human tumor 496974-208-R-J2-PDC patient-derived pancreatic carcinoma cell line growth inhibition [CLK]
Settings: for IC50: curve of first compound; for viability, T/C: stronger effect = lower value
Text: A high-throughput screen of multi-cell type tumor spheroids was designed to identify active combinations of […] and targeted small molecules. Complex spheroids include a stromal component modeled by human endothelial cells (HUVEC) and fibroblasts modeled by human mesenchymal stem cells (MSCs). The concentration ranges selected for each drug and investigational agent were based upon clinically achievable concentrations if the clinical Cmax of the agent was known.
Compounds. The drugs and investigational agents: cirtuvivint (SM08502; NSC835563), CC-671 (NSC850746), vemurafenib (NSC761431), tapotoclax (NSC804041), sotorasib (NSC818433), adagrasib (NSC831453), MRTX-1133 (NSC836407), BAY2416964 (NSC825713), copanlisib (NSC816437), inavolisib (NSC800729), abemaciclib (NSC768073), osimertinib (NSC779217), entinostat (NSC756642), eltanexor (KPT-8602, NSC794443), venetoclax (NSC766270), ceralasertib (NSC777638), bortezomib (NSC756655), olaparib (NSC753686), talazoparib (NSC767125), alisertib (NSC759677), peposertib (NSC802822), gemcitabine (NSC613327), 5-fluorouracil (NSC19893), SN-38 (NSC673596), oxaliplatin (NSC266046), paclitaxel (NSC125973), and doxorubicin (NSC123127), were obtained from the National Cancer Institute (NCI) Developmental Therapeutics Program Chemical Repository. The FDA-approved anticancer drug set is available from the Developmental Therapeutics Program at https://dtp.cancer.gov/organization/dscb/obtaining/available plates.htm. […] The stock solutions were prepared in dimethyl sulfoxide (DMSO, Sigma-Aldrich, St. Louis, MO, cat. D2650), except for the platinum complexes which were prepared in saline (Quality Biological, Gaithersburg, MD, cat. 114-055-101), at 800-fold the tested concentration and stored at -70 degrees C prior to their use. All drugs and investigational agents were tested over a range starting from a high concentration at or near the clinical Cmax and decreasing in half-log increments. If the clinical Cmax for an agent had not been determined, the highest concentration tested was 10 microM.
Cell Culture. All cells were maintained in an incubator at 37 degrees C and 5% CO2 with 95% humidity. The PDC lines were cultured according to standard operating procedures established by the NCI PDMR. Briefly, all PDCs were thawed and cultured in Matrigel-coated flasks prepared with a working solution of 1X Ham's F-12 nutrient mix, without supplementation (Invitrogen, Waltham, MA, cat. 11765054), 100 U/mL penicillin-streptomycin (Invitrogen, cat. 15140122), and 2.5% Matrigel (Corning Inc., Corning, NY, cat. 354248) for the first three passages. The 947758-054-R-J2-PDC line was cultured in 6B/Colon 1A media, which includes advanced DMEM/F-12 (Thermo Fisher Scientific, cat. 12634028), 10 mM HEPES (Thermo Fisher Scientific, cat. 15630080), 1X GlutaMAX supplement (Thermo Fisher Scientific, cat. 35050061), 0.1 mg/mL primocin (InvivoGen, cat. ant-pm-2), 10% defined fetal bovine serum, heat inactivated (HyClone Laboratories Inc., cat. SH30070.03HI), 1.25 mM N-Acetyl-L-cysteine (Sigma-Aldrich, cat. A9165), 10 mM nicotinamide (Sigma-Aldrich, cat. N0636), 1X B-27 supplement (Thermo Fisher Scientific, cat. 17504044), 1X N-2 supplement (Thermo Fisher Scientific, cat. 17502048), and 10 microM Y-27632 dihydrochloride (Tocris Bioscience, cat. 1254). The 876862-298-R-J1-PDC was cultured in 6E media, which includes all 6B/Colon 1A media components plus 50% L-WRN conditioned media (ATCC, cat. CRL-3276), 50 ng/mL recombinant human EGF recombinant protein (hEGF; Thermo Fisher Scientific, cat. PHG0311), 10 ng/mL recombinant human fibroblast growth factor 10 (hGFG-10; PeproTech, cat. 100-26), 1 ng/mL recombinant human fibroblast growth factor 2 (hFGF-2; PeproTech, cat. 100-18B), and 1 µM prostaglandin E2 (PGE2; Tocris, cat. 2296). The 227483-062-R1-J1-PDC line was cultured in Panc media, containing all 6E components except hFGF-2, with the addition of 500 nM SB-431542 (Selleckchem, cat. S1067) and 10 nM gastrin (Tocris, cat. 3006). […]

[1] = second compound 0.0316 µM, first compound 0.0316 µM
[2] = second compound 0.0316 µM, first compound 0.1 µM
[3] = second compound 0.0316 µM, first compound 0.316 µM
[4] = second compound 0.0316 µM, first compound 1 µM
[5] = second compound 0.0316 µM, first compound 3.16 µM
[6] = second compound 0.0316 µM, first compound 10 µM
[7] = second compound 0.1 µM, first compound 0.0316 µM
[8] = second compound 0.1 µM, first compound 0.1 µM
[9] = second compound 0.1 µM, first compound 0.316 µM
[10] = second compound 0.1 µM, first compound 1 µM
[11] = second compound 0.1 µM, first compound 3.16 µM
[12] = second compound 0.1 µM, first compound 10 µM
[13] = second compound 0.316 µM, first compound 0.0316 µM
[14] = second compound 0.316 µM, first compound 0.1 µM
[15] = second compound 0.316 µM, first compound 0.316 µM
[16] = second compound 0.316 µM, first compound 1 µM
[17] = second compound 0.316 µM, first compound 3.16 µM
[18] = second compound 0.316 µM, first compound 10 µM
[19] = second compound 1 µM, first compound 0.0316 µM
[20] = second compound 1 µM, first compound 0.1 µM
[21] = second compound 1 µM, first compound 0.316 µM
[22] = second compound 1 µM, first compound 1 µM
[23] = second compound 1 µM, first compound 3.16 µM
[24] = second compound 1 µM, first compound 10 µM
[25] = second compound 3.16 µM, first compound 0.0316 µM
[26] = second compound 3.16 µM, first compound 0.1 µM
[27] = second compound 3.16 µM, first compound 0.316 µM
[28] = second compound 3.16 µM, first compound 1 µM
[29] = second compound 3.16 µM, first compound 3.16 µM
[30] = second compound 3.16 µM, first compound 10 µM
[31] = second compound 10 µM, first compound 0.0316 µM
[32] = second compound 10 µM, first compound 0.1 µM
[33] = second compound 10 µM, first compound 0.316 µM
[34] = second compound 10 µM, first compound 1 µM
[35] = second compound 10 µM, first compound 3.16 µM
[36] = second compound 10 µM, first compound 10 µM
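Note: spheroids exposed to the drugs for 7 days before readout.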
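Throughout, for viability, T/C: 100% = DMSO vehicle control wells.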

CCCS(=O)(=O)Nc1ccc(F)c(C(=O)c2c[nH]c3ncc(-c4ccc(Cl)cc4)cc23)c1F + CN1CCN(c2cc(C(=O)Nc3cc4cc(-c5cnn(C)c5)ccc4cn3)ccn2)CC1
IC50 (second compound 0.0316 µM): 8.72 µM
IC50 (second compound 0.1 µM): 8.61 µM
IC50 (second compound 0.316 µM): < 0.0316 µM
IC50 (second compound 1 µM): < 0.0316 µM
IC50 (second compound 3.16 µM): < 0.0316 µM
IC50 (second compound 10 µM): < 0.0316 µM
viability, T/C [1]: 100%
viability, T/C [2]: 101%
viability, T/C [3]: 104%
viability, T/C [4]: 112%
viability, T/C [5]: 103%
viability, T/C [6]: 42.9%
viability, T/C [7]: 79.8%
viability, T/C [8]: 92.3%
viability, T/C [9]: 95.8%
viability, T/C [10]: 95.3%
viability, T/C [11]: 82.8%
viability, T/C [12]: 44.8%
viability, T/C [13]: 7.31%
viability, T/C [14]: 7.89%
viability, T/C [15]: 8.26%
viability, T/C [16]: 12.3%
viability, T/C [17]: 13.7%
viability, T/C [18]: 12.7%
viability, T/C [19]: 0.4%
viability, T/C [20]: 1.65%
viability, T/C [21]: 0.49%
viability, T/C [22]: 0.54%
viability, T/C [23]: 0.67%
viability, T/C [24]: 1.12%
viability, T/C [25]: 0.36%
viability, T/C [26]: 0.59%
viability, T/C [27]: 1.11%
viability, T/C [28]: 0.45%
viability, T/C [29]: 1.82%
viability, T/C [30]: 1.33%
viability, T/C [31]: 0.23%
viability, T/C [32]: 0.7%
viability, T/C [33]: 0.31%
viability, T/C [34]: 1.08%
viability, T/C [35]: 1.52%
viability, T/C [36]: 0.99%

COC1C=CCC(C)C(C)S(=O)(=O)NC(=O)c2ccc3c(c2)N(CC2CCC21)CC1(CCCc2cc(Cl)ccc21)CO3 (centres undefined) + CN1CCN(c2cc(C(=O)Nc3cc4cc(-c5cnn(C)c5)ccc4cn3)ccn2)CC1
IC50 (second compound 0.0316 µM): 9.9 µM
IC50 (second compound 0.1 µM): 6.73 µM
IC50 (second compound 0.316 µM): < 0.0316 µM
IC50 (second compound 1 µM): < 0.0316 µM
IC50 (second compound 3.16 µM): < 0.0316 µM
IC50 (second compound 10 µM): < 0.0316 µM
viability, T/C [1]: 93.4%
viability, T/C [2]: 87.3%
viability, T/C [3]: 86.7%
viability, T/C [4]: 76.2%
viability, T/C [5]: 76.1%
viability, T/C [6]: 48.3%
viability, T/C [7]: 79.9%
viability, T/C [8]: 78.4%
viability, T/C [9]: 75.4%
viability, T/C [10]: 69.1%
viability, T/C [11]: 66.3%
viability, T/C [12]: 42%
viability, T/C [13]: 6.55%
viability, T/C [14]: 6.86%
viability, T/C [15]: 6.27%
viability, T/C [16]: 5.01%
viability, T/C [17]: 6.46%
viability, T/C [18]: 9.02%
viability, T/C [19]: 0.46%
viability, T/C [20]: 2.1%
viability, T/C [21]: 1.64%
viability, T/C [22]: 0.36%
viability, T/C [23]: 0.6%
viability, T/C [24]: 2.57%
viability, T/C [25]: 0.56%
viability, T/C [26]: 1.19%
viability, T/C [27]: 0.48%
viability, T/C [28]: 0.35%
viability, T/C [29]: 3.56%
viability, T/C [30]: 1.06%
viability, T/C [31]: 1.5%
viability, T/C [32]: 0.48%
viability, T/C [33]: 0.41%
viability, T/C [34]: 0.29%
viability, T/C [35]: 3.22%
viability, T/C [36]: 0.75%
